This note sets out measurements from patent publication US8569489B2 (A.B. Intelpharm Limited, priority 2007, dated 2013).

Each structure is given as a SMILES string. Where a name gives a salt, the structure may show the parent alone. Read-outs that look alike come from different tables or passages of the source. Some results are limits rather than exact numbers.

The subject of one data set is mice. The data set can be described thus: Acute toxicity, mice perorally.
For data set [1], the system named is isolated guinea pig ileum (spasmogenic effect of histamine). The data set can be described thus: Isolated guinea pig ileum, suppression of the spasmogenic effect of histamine. It is filed as cell-based. The conditions noted are these: histamine spasm, read-out: Antihistaminic activity, isolated ileum of guinea pig, IC50. An excerpt: Study of the antihistaminic activity of the compounds on which a claim is made was done using known methodologies (Rukovodstvo po eksperimental'nomu izucheniyu novykh farmakologicheskikh veshchestv [Manual on experimental study of new pharmacological substances], Moscow, 2005, p. 489) on isolated guinea pig ileum (suppression of the spasmogenic effect of histamine) and on anesthetized guinea pigs (antagonism in relation to the bronchoconstrictor effect of histamine). In tests on intact animals, substances were administered intravenously (5 minutes before the administration of histamine) and orally (2 hours before the beginning of the study).

In data set [2] the test system is H1-histamine receptors (bronchoconstrictor effect of histamine). In words: Anesthetized guinea pigs, antagonism of the bronchoconstrictor effect of histamine (histamine bronchospasm model). It is filed as in vivo, guinea pig. The conditions noted are these: for Antihistaminic activity, guinea pigs in vivo, intravenous administration, ED50 / Antihistaminic activity, guinea pigs in vivo, peroral administration, ED50: anesthetized guinea pigs; for Antihistaminic activity, guinea pigs in vivo, intravenous administration, ED50: 5 minutes before histamine; for Antihistaminic activity, guinea pigs in vivo, peroral administration, ED50: orally 2 hours before the study; for ED50: Cavia porcellus. The method, then: In tests on intact animals, substances were administered intravenously (5 minutes before the administration of histamine) and orally (2 hours before the beginning of the study).

As for `Cl.Cl.Cn1c(=O)c2c(ncn2CC(O)CN2CCN(C(c3ccccc3)c3ccc(Cl)cc3)CC2)n(C)c1=O` (racemic) [II-i], the “Acute toxicity, LD50” value with mice is listed as greater than 1000.0 mg/kg.

`Cl.Cl.Cn1c(=O)c2c(ncn2CC(O)CN2CCN(C(c3ccc(F)cc3)c3ccc(F)cc3)CC2)n(C)c1=O` (racemic) [II-j]: the “Acute toxicity, LD50” value in the data set on mice was greater than 1000.0 mg/kg.

As to `Cn1c(=O)n(CC(O)CN2CCN(C(c3ccccc3)c3ccc(Cl)cc3)CC2)c(=O)c2c1ncn2Cc1ccccc1` (centres unmarked) [I-aa, 1-[2-oxy-3-(4^1-chlorbenzhydryl-4-piperazinyl-1)propyl]-3-methyl-7-benzylxanthine], the IC50 in data set [1] stood at 536 nM.

Take `Cl.Cl.Cn1c(=O)n(CCCN2CCN(C(c3ccccc3)c3ccccc3)CC2)c(=O)c2c1ncn2Cc1ccccc1` [I-b]: the IC50 in data set [1] was 126 nM. Besides, in data set [2], the “Antihistaminic activity, guinea pigs in vivo, intravenous administration, ED50” value is given as 0.3 mg/kg. Moreover, the “Acute toxicity, LD50” value in the data set with mice is greater than 800.0 mg/kg.

Turning to `Cl.Cl.Cn1c(=O)n(CCCN2CCN(C(c3ccccc3)c3ccc(Cl)cc3)CC2)c(=O)c2c1ncn2Cc1ccccc1` (centres unmarked) [I-c], the IC50 in data set [1] worked out at 133 nM. Besides, the “Acute toxicity, LD50” value in the data set on mice turned out to be 400.0 mg/kg.

Regarding `Cl.Cl.Cn1c(=O)n(CCCN2CCN(C(c3ccc(F)cc3)c3ccc(F)cc3)CC2)c(=O)c2c1ncn2Cc1ccccc1` [I-d], the IC50 in data set [1] turned out to be 114 nM. Further, in data set [2], the “Antihistaminic activity, guinea pigs in vivo, intravenous administration, ED50” value was determined as 0.6 mg/kg and the “Antihistaminic activity, guinea pigs in vivo, peroral administration, ED50” value came to 3.0 mg/kg. In the data set with mice, the “Acute toxicity, LD50” value is greater than 250.0 mg/kg.

For `Cn1c(=O)n(CCCN2CCN(C(c3ccccc3)c3ccccc3)CC2)c(=O)c2c1ncn2Cc1ccc(F)cc1` [I-e], the IC50 in data set [1] turned out to be 430 nM.

Turning to `Cn1c(=O)n(CCCN2CCN(C(c3ccc(F)cc3)c3ccc(F)cc3)CC2)c(=O)c2c1ncn2Cc1ccc(F)cc1` [I-f], in data set [1], the IC50 was 514 nM.

`Cn1c(=O)n(CCCN2CCN(C(c3ccccc3)c3ccccc3)CC2)c(=O)c2c1ncn2CC(=O)O` [I-g]: in data set [1], the IC50 amounted to 244 nM.

In the case of `Cl.Cl.Cn1c(=O)n(CCCCN2CCN(C(c3ccccc3)c3ccccc3)CC2)c(=O)c2c1ncn2Cc1ccccc1` [I-i], in data set [1], the IC50 was 111 nM. In data set [2], the “Antihistaminic activity, guinea pigs in vivo, intravenous administration, ED50” value stood at 0.2 mg/kg and the “Antihistaminic activity, guinea pigs in vivo, peroral administration, ED50” value stood at 0.3 mg/kg. The “Acute toxicity, LD50” value in the data set with mice was 400.0 mg/kg.

In the case of `Cl.Cl.Cn1c(=O)n(CCCCN2CCN(C(c3ccccc3)c3ccccc3)CC2)c(=O)c2c1ncn2Cc1ccc(F)cc1` [I-j], the IC50 in data set [1] is 227 nM. In addition, the “Acute toxicity, LD50” value in the data set with mice turned out to be 400.0 mg/kg.

With `Cl.Cl.Cn1c(=O)n(CCCCN2CCN(C(c3ccc(F)cc3)c3ccc(F)cc3)CC2)c(=O)c2c1ncn2Cc1ccc(F)cc1` [I-k], the IC50 in data set [1] came to 267 nM. For the same molecule, the “Acute toxicity, LD50” value with mice is given as 400.0 mg/kg.

In the case of `Cl.Cl.Cn1c(=O)n(CCCCN2CCN(C(c3ccc(F)cc3)c3ccc(F)cc3)CC2)c(=O)c2c1ncn2Cc1ccccc1` [I-l], the IC50 in data set [1] was found to be 185 nM. Also, in data set [2], the “Antihistaminic activity, guinea pigs in vivo, intravenous administration, ED50” value is on record as 0.5 mg/kg and the “Antihistaminic activity, guinea pigs in vivo, peroral administration, ED50” value is on record as 0.5 mg/kg. Also, in the data set on mice, the “Acute toxicity, LD50” value is reported as greater than 1000.0 mg/kg.

On to `Cl.Cl.Cn1c(=O)n(CCCCCN2CCN(C(c3ccccc3)c3ccccc3)CC2)c(=O)c2c1ncn2Cc1ccccc1` [I-m], for which the IC50 in data set [1] is 92 nM. Besides, the “Acute toxicity, LD50” value with mice is given as greater than 200.0 mg/kg.

Regarding `Cl.Cl.Cn1c(=O)n(CCCCCN2CCN(C(c3ccc(F)cc3)c3ccc(F)cc3)CC2)c(=O)c2c1ncn2Cc1ccccc1` [I-n], the IC50 in data set [1] turned out to be 253 nM. In data set [2], the “Antihistaminic activity, guinea pigs in vivo, intravenous administration, ED50” value turned out to be 1.2 mg/kg and the “Antihistaminic activity, guinea pigs in vivo, peroral administration, ED50” value turned out to be 3.0 mg/kg. In the data set on mice, the “Acute toxicity, LD50” value came to 250 mg/kg.

For `Cl.Cl.Cn1c(=O)n(CCN2CCN(C(c3ccc(F)cc3)c3ccc(F)cc3)CC2)c(=O)c2[nH]cnc21` [I-p], the IC50 in data set [1] was found to be 192 nM. For the same molecule, the “Antihistaminic activity, guinea pigs in vivo, intravenous administration, ED50” value in data set [2] is recorded as 1.5 mg/kg.

For the molecule `Cl.Cl.Cn1c(=O)n(CCCN2CCN(C(c3ccccc3)c3ccccc3)CC2)c(=O)c2[nH]cnc21` [I-q], the 50% inhibitory concentration (IC50) in data set [1] is 42 nM. For the same molecule, the “Antihistaminic activity, guinea pigs in vivo, intravenous administration, ED50” value in data set [2] amounted to 0.4 mg/kg. Further, the “Acute toxicity, LD50” value with mice was greater than 1000.0 mg/kg.

In the case of `Cl.Cl.Cn1c(=O)n(CCCN2CCN(C(c3ccc(F)cc3)c3ccc(F)cc3)CC2)c(=O)c2[nH]cnc21` [I-r], the IC50 in data set [1] turned out to be 76 nM. In addition, the “Antihistaminic activity, guinea pigs in vivo, peroral administration, ED50” value in data set [2] is on record as greater than 3.0 mg/kg. The “Acute toxicity, LD50” value in the data set on mice was greater than 1000.0 mg/kg.

Consider `Cl.Cl.Cn1c(=O)n(CCCCN2CCN(C(c3ccccc3)c3ccccc3)CC2)c(=O)c2[nH]cnc21` [I-s, 1-[4-(benzhydryl-4-piperazinyl-1)butyl]-3-methylxanthine dihydrochloride], for which the IC50 in data set [1] came to 26 nM. In data set [2], the “Antihistaminic activity, guinea pigs in vivo, intravenous administration, ED50” value was found to be 0.2 mg/kg and the “Antihistaminic activity, guinea pigs in vivo, peroral administration, ED50” value came out at 0.3 mg/kg. Also, the “Acute toxicity, LD50” value in the data set on mice was greater than 750.0 mg/kg.

For the molecule `Cl.Cl.Cn1c(=O)n(CCCCN2CCN(C(c3ccccc3)c3ccc(Cl)cc3)CC2)c(=O)c2[nH]cnc21` (centres unmarked) [I-t], the IC50 in data set [1] was determined as 104 nM. In data set [2], the “Antihistaminic activity, guinea pigs in vivo, intravenous administration, ED50” value came out at 0.3 mg/kg. Moreover, the “Acute toxicity, LD50” value in the data set on mice is given as greater than 1000.0 mg/kg.

Turning to `Cl.Cl.Cn1c(=O)n(CCCCN2CCN(C(c3ccc(F)cc3)c3ccc(F)cc3)CC2)c(=O)c2[nH]cnc21` [I-u], the IC50 in data set [1] is 51 nM. Besides, in data set [2], the “Antihistaminic activity, guinea pigs in vivo, intravenous administration, ED50” value came to 0.7 mg/kg and the “Antihistaminic activity, guinea pigs in vivo, peroral administration, ED50” value is greater than 3.0 mg/kg. Besides, the “Acute toxicity, LD50” value in the data set with mice is on record as greater than 1000.0 mg/kg.

On to `Cn1cnc2c1c(=O)n(CC(O)CN1CCN(C(c3ccccc3)c3ccccc3)CC1)c(=O)n2C` (centres unmarked) [I-x, 1-[2-oxy-3-(benzhydryl-4-piperazinyl-1)propyl]-3,7-dimethylxanthine dihydrochloride], for which the IC50 in data set [1] is 1270 nM.

Consider `Cn1cnc2c1c(=O)n(CC(O)CN1CCN(C(c3ccccc3)c3ccc(Cl)cc3)CC1)c(=O)n2C` (centres unmarked) [I-y, 1-[2-oxy-3-(4^1-chlorbenzhydryl-4-piperazinyl-1)propyl]-3,7-dimethylxanthine], for which, in data set [1], the IC50 was determined as 123 nM.

For `Cn1c(=O)n(CC(O)CN2CCN(C(c3ccccc3)c3ccccc3)CC2)c(=O)c2c1ncn2Cc1ccccc1` (centres unmarked) [I-z, 1-[2-oxy-3-(benzhydryl-4-piperazinyl-1)-propyl]-3-methyl-7-benzylxanthine], the IC50 in data set [1] stood at 524 nM.

Consider `Cl.Cl.Cn1c(=O)c2c(ncn2CC(O)CN2CCN(C(c3ccccc3)c3ccccc3)CC2)n(C)c1=O` (centres unmarked) [II-h, 1,3-dimethyl-7-[2-oxy-3-(benzhydryl-4-piperazinyl-1)propyl]xanthine dihydrochloride], for which, in data set [2], the “Antihistaminic activity, guinea pigs in vivo, intravenous administration, ED50” value turned out to be 0.1 mg/kg and the “Antihistaminic activity, guinea pigs in vivo, peroral administration, ED50” value worked out at 2.0 mg/kg. Moreover, the “Acute toxicity, LD50” value with mice is listed as greater than 1000.0 mg/kg.

Turning to `CCOC(=O)N1CCC(=C2c3ccc(Cl)cc3CCc3cccnc32)CC1` [Loratadine, reference compound], the IC50 in data set [1] (Cavia porcellus) is 472 nM. Also, the ED50 in data set [2] (iv, read-out: Antihistaminic activity, guinea pigs in vivo, intravenous administration, ED50) came to 0.3 mg/kg; in data set [2] (po, read-out: Antihistaminic activity, guinea pigs in vivo, peroral administration, ED50), 0.9 mg/kg. Moreover, the “Duration of effective blockade of H1-histamine receptors” value in data set [2] (histamine bronchospasm model, oral dose of 3 mg/kg) came to 18 h.
